The text below walks through data of US9687529B2, “Method of controlling coagulation” (Duke University, priority 2011, dated 2017).

The test system of data set [1] is clot formation in whole blood. In words: TEG of whole blood, coagulation triggered by kaolin (Example I). The class given is cell-based. The note with it: for α: buffer 44.9 degrees; for MA: buffer 63.1 mm; for R: buffer 6.8 minutes. As to the method:
TEG is a waveform generated from serial measurements of the torque transmitted from a small oscillating cup to the tip of a metal pin inserted into the cup by a 360 microliter sample of blood or plasma added to the cup.
A 360 microliter blood sample has been added to the cup. For 180 minutes after the sample is added, the cup oscillates alternatively clockwise and counterclockwise through an arc of 4° 45′ at a frequency of one oscillation cycle—i. e., one clockwise rotation and one counterclockwise rotation—every 10 seconds. The lower end of the pin is immersed by the sample; the upper end is suspended from a torsion wire. The TEG analyzer records a single measurement of rotation-induced torque after each clockwise rotation and after each counterclockwise rotation of the cup. “The torque of the rotating cup is transmitted to the immersed pin only after fibrin-platelet bonding has linked the cup and [the] pin together. The strength of these fibrin-platelet bonds affects the magnitude of the pin motion, such that strong clots move the pin directly in phase with the cup motion. Thus, the magnitude of the output is directly related to the strength of the formed clot . . . . [If] the clot retracts or lyses, these bonds are broken and the transfer of cup motion is diminished. The rotation movement of the pin is converted by a mechanical-electrical transducer to an electrical signal which can be monitored by a computer” (TEG 5000 User Manual, pp 3-4, 1999-2007)). The computer converts the series of electrical signals into the TEG tracing.
In the absence of an anticoagulant (A), R was 6.8 minutes, α was 44.9 degrees, and MA was 63.1 mm. […] Thus, each aptamer, to varying degrees, prolonged the time to clot formation, reduced the rate of clot strengthening, and reduced the ultimate strength of the clot. However, as was true in the previous experiment, no aptamer acting alone at the concentrations tested prevented clot formation.

Data set [2] concerns clot formation in normal human platelet poor plasma. Description: Activated partial thromboplastin time (aPTT) plasma clotting assay. The class given is biochemical. The settings on record: for increase of aPTT clotting time: 4 μM aptamer. As to the method:
The activated partial thromboplastin time (aPTT) and prothrombin time (PT) assays were performed on a model ST4 mechanical coagulometer (Diagnostica Stago, Parsippany, N.J.) as previously described (Bompiani et al, J Thromb Haemost 10:870-80 (2012)). For the aPTT, 50 μL of normal human platelet poor plasma (PPP) was incubated with 50 μL TriniClot aPTT S (Trinity BioTech, Bray, Co Wicklow, Ireland) at 37° C. for 5 min. Aptamer(s) (5 μL) was added, and the mixture was incubated at 37° C. for another 5 min, and CaCl2 (50 μL) was added to initiate the assay. For the PT, 50 μL of normal human PPP was incubated with 5 μL of aptamer(s) at 37° C. for 5 min. TriniClot PT Excel reagent (Trinity BioTech, Bray, Co Wicklow, Ireland) (100 μL) was added to initiate the reaction. Assays with a combination of two aptamers contain an equimolar concentration of each individual aptamer, and the data shown are the total RNA concentration.
To compare the anticoagulant effect of these four aptamers, dose-response titrations were performed in several clinical plasma-based clotting assays. The activated partial thromboplastin time (aPTT) and prothrombin time (PT) are plasma clotting assays that are clinically used to probe for abnormalities in the intrinsic and extrinsic coagulation pathways, respectively (Van Cott et al, editors. Jacobs & DeMott laboratory test handbook. 5th ed. Hudson Ohio: Lexi-Comp. p. 327-58 (2001)). These relatively simple assays measure the time until clot formation in platelet poor plasma (PPP) in response to either robust tissue factor (TF), or contact stimulation via negatively charged surfaces (i.e., silica, kaolin, celite). […] At high concentrations, the prothrombin aptamer (R9D-14T) was the most robust anticoagulant and inhibited greater than 96% of prothrombin activity in the aPTT and PT. At 4 μM, R9D-14T increased the aPTT clotting time approximately 18-fold and the PT clotting time greater than 80-fold (exceeded the assay limit of 999 sec). […] At the same dose, the FIXa aptamer (9.3T) inhibited greater than 99% of FIX activity and increased the aPTT clotting time approximately 5.5-fold, while the FVIIa aptamer (7S-1) increased the PT clotting time 3-fold and inhibited greater than 99% of FVII activity (FIGS. 20A and 20B).

Data set [3] deals with fibrin deposition on oxygenator membrane. Description: Oxygenator membrane scanning electron microscopy. Further details: species or system human. The note with it: FIG. 25 doses: UFH 5 U/mL, 9.3T 1 μM, 11F7T 2 μM, R9D-14T 5 μM, 11F7T 0.5 μM+R9D-14T 5 μM. As to the method:
After 2 hours of circulation (or until there was visible clot formation), the minicircuit was washed with three volumes (approximately 60 mL) of PBS at a flow rate of 50 mL/min. The oxygenator membrane was removed with forceps, washed with gentle rocking in PBS for approximately 30 sec, then removed and blotted. Three pieces approximately 10 mm×10 mm were excised from different areas of the membrane with a clean razor blade. The membrane pieces were fixed overnight in PBS with 4% formaldehyde and 2% glutaraldehyde, washed two times with PBS, then dehydrated in an ethanol gradient (30% to 100%). The membranes were subsequently submerged in tetramethylsilane (TMS) for 10 min, then removed and placed in a desiccator overnight. Desiccated membrane specimens measuring approximately 10 mm×7 mm were affixed with double sided tape to circular metal stubs approximately 14 mm in diameter. The specimens were gold sputter coated in a Denton Vacuum Desk IV® (Denton Vacuum LLC, Moorestown, N.J.) according to the manufacturer's instructions. The scanning electron microscopic (SEM) images were obtained with a FEI XL 30 FE SEM (FEI, Hillsboro, Oreg.).

Take “9.3T: FIXa aptamer, 2'-fluoropyrimidine modified RNA, SEQ ID NO: 1 (AUGGGGACUAUACCGCGUAAUGCUGCCUCCCCAU; 2'-fluoro at CU, RNA at AG, backbone not given here) [Aptamer 9.3T]”: in data set [1] (2.0 micromolar, kaolin), the α is on record as 36.6 degrees, the MA stood at 58.6 mm and the R was 29.2 min. Moreover, the “time of clot formation (bifurcation)” value in data set [1] (FIXa aptamer 0.5 micromolar, kaolin) came out at 22.1 min. Further, the “increase of aPTT clotting time” value in data set [2] was “approximately 5.5 fold”. Also, in data set [3], the “fibrin deposition on oxygenator membrane, scanning electron micrographs (in words)” value (“fibrin deposition on oxygenator membrane” below) is “obvious fibrin deposition on the membrane”.

For the substance “11F7T: FXa aptamer, 2'-fluoropyrimidine modified RNA, SEQ ID NO: 2 (GAGAGCCCCAGCGAGAUAAUACUUGGCCCCGCUCUU; 2'-fluoro at CU, RNA at AG, backbone not given here) [Aptamer 11F7T]”, in data set [1] (2.0 micromolar, kaolin), the α is given as 29.8 degrees, the MA was found to be 48.4 mm and the R came out at 22.5 min. For the same substance, in data set [1] (data not shown), the “clot formation in TEG assays, single agents (in words)” value was “delay, but do not prevent clot formation”. In addition, the “increase of aPTT clotting time” value in data set [2] is on record as “approximately 11 fold”. The “fibrin deposition on oxygenator membrane” value in data set [3] was “obvious fibrin deposition on the membrane”.

In the case of “R9D-14T: prothrombin/thrombin aptamer, 58-base truncation of RNA9D-14, SEQ ID NO: 3 (GGCGGTCGATCACACAGTTCAAACGTAATAAGCCAATGTACGAGGCAGACGACTCGCC; 2'-fluoro at CT, RNA at AG, backbone and T or U not given here) [Aptamer R9D-14T]”, in data set [1] (5.0 micromolar, kaolin), the α is 18.6 degrees, the MA was found to be 42.5 mm and the R came out at 31.3 min. Moreover, the “increase of aPTT clotting time” value in data set [2] is reported as “approximately 18 fold”. For the same substance, the prothrombin activity inhibited result in data set [2] (aPTT, high concentrations) was “greater than 96%”. Further, the “fibrin deposition on oxygenator membrane” value in data set [3] is “obvious fibrin deposition on the membrane”.
